What follows are compounds tested against T1, FLuc-C-HiBiT (Photinus pyralis, UniProt P08659) (assay: biochemical). Details: enzyme activity, 10 uM ATP; read-out: IC50 or SDR50 (mM) / FLuc E.
T1 construct: firefly luciferase with C-terminal HiBiT tag, E. coli expressed
T1 sequence (P08659 whole entry, looked up): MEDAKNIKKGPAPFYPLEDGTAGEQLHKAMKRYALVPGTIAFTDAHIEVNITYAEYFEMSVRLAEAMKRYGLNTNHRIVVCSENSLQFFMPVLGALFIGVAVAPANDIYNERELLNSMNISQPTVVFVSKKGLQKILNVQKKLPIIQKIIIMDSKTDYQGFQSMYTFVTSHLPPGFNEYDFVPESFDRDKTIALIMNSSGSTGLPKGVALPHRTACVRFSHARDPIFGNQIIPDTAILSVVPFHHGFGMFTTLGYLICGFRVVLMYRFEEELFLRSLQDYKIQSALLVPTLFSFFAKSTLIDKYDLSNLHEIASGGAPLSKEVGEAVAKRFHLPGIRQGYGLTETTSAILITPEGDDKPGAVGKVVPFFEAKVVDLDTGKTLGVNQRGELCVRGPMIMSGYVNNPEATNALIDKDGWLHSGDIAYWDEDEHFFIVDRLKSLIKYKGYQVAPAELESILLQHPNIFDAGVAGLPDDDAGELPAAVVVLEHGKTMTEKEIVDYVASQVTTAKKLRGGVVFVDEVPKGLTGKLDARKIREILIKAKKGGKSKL

IC50 [µM] | Compound
9.89 | CCc1cccc(NC(=O)c2cc(-c3ccc[nH]3)n[nH]2)c1 [NCGC00454482-03]
15.7 | O=C(O)c1ccccc1-c1noc(-c2ccccc2F)n1 [NCGC00183910-01]
> 30 | COc1ccc(N2CCN(C(=O)Cn3cccc3-c3nc(-c4ccc5c(c4)OCO5)no3)CC2)cc1 [NCGC00445315-01]
0.881 | COc1ccc(NC(=O)Nc2cccc(-c3ccc(N4CCOCC4)nn3)c2)cc1F [NCGC00427622-01]
> 30 | COc1ccc(CN(C(=O)c2cc3ccccc3oc2=O)C2CC[S+](=O)([O-])C2)cc1OC (stereo not drawn) [NCGC00100996-01]
9.89 | c1ccc(-c2noc(-c3nc(C4CC4)no3)n2)cc1 [NCGC00450069-01]
> 30 | C=CCN(C)C(=O)[C@@H](C)C1CC[C@@]2(C)Cc3sc(NC(=O)CN(C)C)nc3[C@@H](C)[C@@H]2[C@H]1O (stereo partly drawn) [NCGC00421253-01]
12.4 | COc1ccc2cc(C3CN(C(=O)CNC(=O)C(C)C)CCO3)ccc2c1 (stereo not drawn) [NCGC00430625-01]
> 30 | COc1cccc(CC(=O)Nc2ccc(-c3nc4ccccc4s3)cc2Cl)c1 [NCGC00137806-01]
> 30 | CC1CCc2nc3ncn(Cc4ccc(Cl)cc4)c(=O)c3cc2C1 (stereo not drawn) [NCGC00132725-01]
16.1 | Cc1ccc(CN2CCc3nc(C(=O)Nc4ccccc4)oc3CC2)cc1 [NCGC00413255-01]
22.7 | Oc1cccc(-c2cc3c(cn2)CN(Cc2cccnc2)CCN3)c1 [NCGC00411023-01]
8.81 | CC(=O)Oc1ccccc1C(=O)Nc1ccc(-c2nc3ccc(C)cc3s2)cc1 [NCGC00596510-01]
> 30 | Cn1c(C(=O)Nc2ccc3c(c2)OCO3)cc2c1CCN(Cc1cccc(F)c1)C2 [NCGC00430636-01]
4.42 | CCCNC(=O)C1C(c2cccc(NC(=O)c3ccc(C)cc3)c2)OC(=O)N1Cc1ccc(C)cc1 (stereo not drawn) [NCGC00475006-01]
11.4 | Cc1cc(-c2cc3c(cn2)CN(Cc2cccs2)CCN3)ccn1 [NCGC00411196-01]
> 30 | N#Cc1c(NC(=O)c2cccc3ccccc23)sc2c1CCCC2 [NCGC00242227-03]
11.1 | CCOc1ccc(-n2nc(CO)c(C(=O)NCc3ccccn3)n2)cc1 [NCGC00117131-01]
12.4 | Cc1ncc(CC(=O)NCc2ccc3[nH]c(-c4ccccc4F)c(C)c3c2)c(=O)[nH]1 [NCGC00436691-01]

IC50 [µM] | Compound
> 30 | COc1ccc(-c2nc3ccccc3s2)cc1NC(=O)c1cc2ccccc2o1 [NCGC00102103-01]
> 30 | O=C(COc1ccccc1[N+](=O)[O-])Nc1cccc(-c2nc3ccccc3s2)c1 [NCGC00119155-01]
> 30 | Cc1cnc(CC2CCCN(C(=O)CCc3c[nH]c4ccccc34)C2)n1C(C)C (stereo not drawn) [NCGC00469687-01]
11.1 | CN1c2cc(C(=O)Nc3ccccc3)ccc2C(=O)N2CCCCCC21 (stereo not drawn) [NCGC00452190-01]
20.2 | COCCN1CCNc2cc(-c3cccc(OC)c3)ncc2C1 [NCGC00411013-01]
11.4 | Fc1ccc(Nc2ncc(-c3cccnc3)c3c2OCC3)cc1 [NCGC00412761-01]
18 | Cc1nn(-c2ccc(C(C)C)cc2)c(C)c1[C@@H]1C=C[C@@H](NC(=O)NC(C)C)C1 [NCGC00399949-01]
11.1 | Cc1ccc(C2Cn3nnc(C(=O)N4CCC(C(=O)NCCc5ccccc5)CC4)c3CO2)cc1 (stereo not drawn) [NCGC00449535-01]
> 30 | O=C(Nc1ccc(-c2nc3ccccc3s2)c(O)c1)c1ccccc1F [NCGC00594666-01]
1.57 | CSc1cccc(NC(=O)Nc2cccc(-c3ccc(N4CCOCC4)nn3)c2)c1 [NCGC00427606-01]
3.51 | O=C1NCCCCCCN(C(=O)Nc2ccc3c(c2)OCCO3)[C@H]2CCC[C@@H]12 [NCGC00465105-01]
11.1 | O=C(Nc1ccccc1)N1CC(Oc2ccc(-c3nc(-c4ccccc4)no3)cc2)C1 [NCGC00441117-01]
12.4 | COc1ccc(OCC(=O)Nc2cc(-c3nc4ccccc4s3)ccc2C)cc1 [NCGC00098594-01]
11.1 | CN1C[C@@H](N[S+](=O)([O-])c2ccc(C#N)cc2)C[C@H]1c1nc(-c2ccc(Cl)cc2)no1 [NCGC00400957-01]
9.89 | CCN1CCN(c2ccc(-c3cccc(N)c3)nn2)CC1 [NCGC00432707-01]
20.2 | OC1CN(Cc2ccc(-c3cnc4c(OCc5ccccc5)nccn34)cc2)C1 [NCGC00414051-01]
4.42 | O=C(Nc1ccc2c(c1)OCCO2)C1CN([S+](=O)([O-])C2CC2)CC12CCCCC2 (stereo not drawn) [NCGC00439803-01]
9.89 | O=C(NCc1ccco1)Nc1cccc(-c2ccc(N3CCCC3)nn2)c1 [NCGC00427562-01]
9.89 | CC(Cn1cccn1)Nc1ccc(-c2nc(-c3ccccc3F)no2)cn1 (stereo not drawn) [NCGC00427483-01]

IC50 [µM] | Compound
0.0624 | O=C(O)c1cccc(-c2noc(-c3ccccc3C(F)(F)F)n2)c1 [NCGC00168768-02]
12.4 | O=C(Nc1ccc(Cl)cc1)Nc1ccc2n(c1=O)C[C@H]1C[C@@H]2CN(C(=O)c2ccc3ccccc3c2)C1 [NCGC00395236-01]
12.4 | COc1cc(C)ccc1OCc1cc(C(=O)NCc2n[nH]c3c2CCC3)no1 [NCGC00433000-01]
9.89 | O[C@H]1C[C@@H](c2cc(N3CCc4c(Cl)cccc4C3)ncn2)C1 [NCGC00424922-01]
14 | CC(=O)NC1CCN(Cc2cn(-c3ccc(C)cc3)nc2-c2cccc(C)c2)C1 (stereo not drawn) [NCGC00437791-01]
> 30 | O=C(/C=C/c1ccccc1)Nc1cc(-c2nc3cc(Cl)ccc3o2)ccc1Cl [NCGC00102391-01]
3.51 | COc1ccc(Nc2nc(-c3ccccc3F)no2)cc1OC [NCGC00422302-01]
11.1 | COc1ccc(-c2cc3nc4c(c(=O)n3[nH]2)CN(C(=O)NCc2ccco2)CC4)cc1 [NCGC00440289-01]
7.85 | O=C(Nc1c(C(=O)Nc2ccc(F)cc2)oc2ccccc12)c1cc2ccccc2o1 [NCGC00111604-01]
> 30 | Cc1ccc(-n2ncc3c(N4CCCCC4)nc(NCCCO)nc32)cc1 [NCGC00652354-01]
9.89 | CC(C)n1cc2cc(C(=O)Nc3ccc4c(c3)OCCO4)sc2c1 [NCGC00470606-01]
20.2 | CNC(=O)c1cccc(-c2cnc(NC(=O)c3ccncc3)c3c2CCO3)c1 [NCGC00412795-01]
> 30 | O=C(O)C1(CCc2ccccc2)CCCN(c2ncnc3[nH]cnc23)C1 (stereo not drawn) [NCGC00432626-01]
1.8 | COc1cccc(-c2ncc3c(n2)OCCN(c2ccccc2)C3=O)c1 [NCGC00413522-01]
> 30 | CCOc1cccc(-c2nc(C3CCOC3)no2)c1 (stereo not drawn) [NCGC00445015-01]
3.13 | COc1ccccc1NC(=O)Nc1cccc(-c2ccc(N3CCOCC3)nn2)c1 [NCGC00427580-01]
14.3 | Fc1ccc2[nH]c([C@H]3CCN(Cc4ccccc4F)C3)nc2c1 [NCGC00391187-01]
0.785 | CC1CCCN(c2ncnc3c2cnn3-c2cccc(Cl)c2)C1 (stereo not drawn) [NCGC00523592-01]

Compound | IC50 [µM]
COc1cc2c(cc1-c1ccc(CO)cc1)NC(=O)C21CCN(C)CC1 [NCGC00416803-01] | 20.2
O=C(O)c1cccc(-c2noc(-c3ccccc3F)n2)c1 [NCGC00168759-10] | 0.00624
Cc1ccccc1Cn1cccc(C(=O)Nc2nc3ccccc3s2)c1=O [NCGC00134725-01] | 0.881
Cc1cc(-c2cc3c(cn2)CN(CC(C)C)CCN3)ccn1 [NCGC00411077-01] | 16.1

— PMC12064818, “A general assay platform to study protein pharmacology using ligand-dependent structural dynamics” (Nature Communications, 2025)
